ChEMBL document CHEMBL2046271, “Terpenes from Copaifera demonstrated in vitro antiparasitic and synergic activity” (J Med Chem, 2012)
Active and inactive are the calls of the source. No cut-off for these calls is given here.

Key:
[1] = system: Trypanosoma cruzi; assay: Antitrypanosomal activity against Trypanosoma cruzi Y epimastigotes assessed as gated cells in lower left quadrant at 400 uM after 3 hrs by propidium iodide staining-based flow cytometric analysis (reference value: 89.35%); format: functional
[2] = Cytotoxicity against monkey LLC-MK2 cells after 96 hrs by sulforhodamine B assay; format: cell-based, Macaca mulatta; conditions: rhesus monkey
[3] = system: Trypanosoma cruzi; assay: Antitrypanosomal activity against Trypanosoma cruzi Y epimastigotes assessed as gated cells in upper right quadrant at 400 uM after 3 hrs by rhodamine 123 staining-based flow cytometric analysis (reference value: 94.94%); format: functional
[4] = system: Trypanosoma cruzi; assay: Antitrypanosomal activity against Trypanosoma cruzi Y epimastigotes assessed as gated cells in upper left quadrant at 400 uM after 3 hrs by rhodamine 123 staining-based flow cytometric analysis (reference value: 1.54%); format: functional
[5] = system: Trypanosoma cruzi; assay: Antitrypanosomal activity against Trypanosoma cruzi Y epimastigotes after 96 hrs by neubauer chamber; format: functional, organism-based
[6] = system: Trypanosoma cruzi; assay: Antitrypanosomal activity against Trypanosoma cruzi Y epimastigotes assessed as lipid peroxidation at 400 uM after 6 hrs; format: functional
[7] = Toxicity in human RBC assessed as hemolysis after 3 hrs; format: cell-based, Erythrocyte; conditions: red blood cells
[8] = system: Trypanosoma cruzi; assay: Antitrypanosomal activity against Trypanosoma cruzi Y trymastigotes infected in monkey LLC-MK2 cells after 24 hrs by Brenner counter method; format: functional, organism-based; conditions: LLC-MK2, 24 h
[9] = system: Trypanosoma cruzi; assay: Antitrypanosomal activity against Trypanosoma cruzi Y amastigotes infected in monkey LLC-MK2 cells after 96 hrs by Geimsa staining method; format: functional, organism-based; conditions: LLC-MK2, 96 h
[10] = system: Trypanosoma cruzi; assay: Antitrypanosomal activity against Trypanosoma cruzi Y epimastigotes assessed as gated cells in upper left quadrant at 400 uM after 3 hrs by propidium iodide staining-based flow cytometric analysis (reference value: 3.76%); format: functional
[11] = Selectivity ratio of CC50 for monkey LLC-MK2 cells to IC50 for Trypanosoma cruzi Y amastigotes; format: ADME, cell-based; conditions: LLC-MK2 cells versus Trypanosoma cruzi Y amastigotes, read-out: Ratio CC50/IC50
[12] = system: Trypanosoma cruzi; assay: Antitrypanosomal activity against Trypanosoma cruzi Y epimastigotes assessed as gated cells in lower right quadrant at 400 uM after 3 hrs by rhodamine 123 staining-based flow cytometric analysis (reference value: 1.12%); format: functional
[13] = system: Trypanosoma cruzi; assay: Antitrypanosomal activity against Trypanosoma cruzi Y epimastigotes assessed as gated cells in lower left quadrant at 400 uM after 3 hrs by rhodamine 123 staining-based flow cytometric analysis (reference value: 2.40%); format: functional
[14] = system: Trypanosoma cruzi; assay: Antitrypanosomal activity against Trypanosoma cruzi Y epimastigotes assessed as gated cells in upper right quadrant at 400 uM after 3 hrs by propidium iodide staining-based flow cytometric analysis (reference value: 1.40%); format: functional
[15] = system: Trypanosoma cruzi; assay: Antitrypanosomal activity against Trypanosoma cruzi Y infected in monkey LLC-MK2 cells assessed as reduction in number of amastigotes after 96 hrs by Geimsa staining method; format: functional; parameters: concentration or dose not given beside the values
[16] = system: Trypanosoma cruzi; assay: Antitrypanosomal activity against Trypanosoma cruzi Y epimastigotes assessed as gated cells in lower right quadrant at 400 uM after 3 hrs by propidium iodide staining-based flow cytometric analysis (reference value: 5.41%); format: functional
[17] = system: Trypanosoma cruzi; assay: Antitrypanosomal activity against Trypanosoma cruzi Y trymastigotes infected in monkey LLC-MK2 cells after 24 hrs by Brenner counter method in presence of copalic; format: functional
[18] = system: Trypanosoma cruzi; assay: Antitrypanosomal activity against Trypanosoma cruzi Y trymastigotes infected in monkey LLC-MK2 cells after 24 hrs by Brenner counter method in presence of beta-hydroxycopalic; format: functional
[19] = system: Trypanosoma cruzi; assay: Antitrypanosomal activity against Trypanosoma cruzi Y epimastigotes assessed as formation of concentric membranous vacuoles at compound IC50 concentration after 96 hrs by transmission electron microscopic analysis; format: functional, organism-based
[20] = system: Trypanosoma cruzi; assay: Antitrypanosomal activity against Trypanosoma cruzi Y epimastigotes assessed as kinetoplast disorganisation at compound IC50 concentration after 96 hrs by transmission electron microscopic analysis; format: functional, organism-based
[21] = system: Trypanosoma cruzi; assay: Antitrypanosomal activity against Trypanosoma cruzi Y epimastigotes assessed as organelle disorganization at compound IC50 concentration after 96 hrs by transmission electron microscopic analysis; format: functional, organism-based
[22] = system: Trypanosoma cruzi; assay: Antitrypanosomal activity against Trypanosoma cruzi Y epimastigotes assessed as membranous vacuole formation in all body parts at compound IC50 concentration after 96 hrs by transmission electron microscopic analysis; format: functional, organism-based
[23] = system: Trypanosoma cruzi; assay: Antitrypanosomal activity against Trypanosoma cruzi Y epimastigotes assessed as pronounced swelling of mitochondria at compound IC50 concentration after 96 hrs by transmission electron microscopic analysis; format: functional, organism-based
[24] = Toxicity in human RBC assessed as hemolysis at 1552 uM after 3 hrs; format: cell-based, Erythrocyte; conditions: red blood cells, read-out: Activity

| Compound | Activity [1] [%] | CC50 at 96 h [2] [µM] | Activity [3] [%] | Activity [4] [%] | IC50 [5] [µM] | Activity [6] | HC50 at 3 h [7] [µM] | EC50 [8] [µM] | IC50 [9] [µM] | Activity [10] [%] | selectivity ratio [11] | Activity [12] [%] | Activity [13] [%] | Activity [14] [%] | Activity [15] [%] | Activity [16] [%] | further results |
| --- | --- | --- | --- | --- | --- | --- | --- | --- | --- | --- | --- | --- | --- | --- | --- | --- | --- |
| C=C1CC[C@@H]2[C@](C)(CCC[C@]2(C)C(=O)O)[C@H]1CC/C(C)=C/C(=O)O [AGATHIC ACID] | 14.2 | 56.8 | 84.11 | 13.37 | 86.8 | inactive | 1050 | 823 | 14.9 | 50.32 | 3.8 | 0.45 | 2.07 | 32.97 | 38 | 2.51 | – |
| O=C(Cn1ccnc1[N+](=O)[O-])NCc1ccccc1 [BENZNIDAZOLE] | – | 615 | – | – | 6.5 | – | > 1920 | 34.5 | 19.2 | – | 32 | – | – | – | – | – | fractional inhibitory concentration index (FICI) [17]: 0.95; fractional inhibitory concentration index (FICI) [18]: 1.01 |
| C=C1CC/C=C(\C)CC[C@@H]2[C@@H]1CC2(C)C [BETA-CARYOPHYLLENE] | 9.53 | 1720 | 29.35 | 3.17 | 78.4 | 30% | > 2450 | 1590 | 63.7 | 78.81 | 26.9 | 15.47 | 52.01 | 11.4 | 25 | 0.26 | fractional inhibitory concentration index (FICI) [17]: 0.12; Activity [19]: Active; fractional inhibitory concentration index (FICI) [18]: 0.86; Activity [20]: Active |
| C=C1C[C@@]23CC[C@H]4[C@@](C)(CCC[C@@]4(C)C(=O)O)[C@@H]2CC[C@@H]1C3 [KAURENOIC ACID] | 22.65 | 76.1 | 91.64 | 2.55 | 167 | inactive | 464 | 596 | 16.5 | 45.55 | 4.6 | 0.96 | 4.85 | 18.53 | 38 | 13.27 | – |
| C=C1CC[C@@H]2C(C)(C)[C@@H](O)CC[C@@]2(C)[C@@H]1CC/C(C)=C/C(=O)O | 2.56 | 31.2 | 73.66 | 24.06 | 41.2 | inactive | 125 | 453 | 1.8 | 73 | 17.3 | 0.01 | 2.27 | 24.29 | 40 | 0.15 | Activity [21]: Active; Activity [22]: Active |
| C[C@@H]1[C@H](O)[C@@H](C)/C=C/C=C/C=C/C=C/C=C/C=C/C=C/[C@H](O[C@@H]2O[C@H](C)[C@@H](O)[C@H](N)[C@@H]2O)C[C@@H]2O[C@](O)(C[C@@H](O)C[C@@H](O)[C@H](O)CC[C@@H](O)C[C@@H](O)CC(=O)O[C@H]1C)C[C@H](O)[C@H]2C(=O)O [AMPHOTERICIN B] | – | – | – | – | – | – | 50.8 | – | – | – | – | – | – | – | – | – | – |
| C=C1CC[C@@H]2[C@](C)(CCC[C@@]2(C)C(=O)O)[C@H]1CCc1ccoc1 [POLYALTIC ACID] | 26.71 | 60.1 | 95.96 | 1.28 | 168 | inactive | > 1580 | 965 | 28.4 | 16.7 | 2.1 | 0.91 | 1.85 | 29.09 | 38 | 25.8 | – |
| C=C1CC[C@@H]2C(C)(C)CCC[C@@]2(C)[C@@H]1CC/C(C)=C/C(=O)O [COPALIC ACID] | 5.17 | 39.4 | 72.57 | 24.47 | 42.7 | 30% | 65.7 | 444 | 1.3 | 43.58 | 30.3 | 0.1 | 2.86 | 50.54 | 48 | 0.71 | Activity [23]: Active |
| C=C1CC[C@@H]2[C@](C)(CCC[C@@]2(C)C(=O)O)[C@H]1CC[C@H](C)CC(=O)O [PINIFOLIC ACID] | 91.66 | 252 | 97.96 | 0.81 | 854 | inactive | > 1550 | 1630 | 18.6 | 3.78 | 13.5 | 0.21 | 1.02 | 0.71 | 25 | 3.85 | hemolysis at 3 h, 1552 µM [24]: 8% |
| C=C1CC[C@@H]2C(C)(C)CCC[C@@]2(C)[C@@H]1CC/C(C)=C/C(=O)OC [METHYL COPALATE] | 85.91 | 69.1 | 98.49 | 0.64 | 83.3 | inactive | 1600 | 377 | 2.5 | 2.62 | 27.6 | 0.21 | 0.66 | 2.25 | 38 | 9.22 | – |
